Measured values from PMC2586337 (Biochemistry, 2008).
Like-named read-outs stand apart in the source and are kept apart here.

Key:
primase (UL5/UL8/UL52) [1] = target: T1, primase (UL5/UL8/UL52) (Human herpesvirus 1, UniProt P10236); assay: Polymerization of nucleoside triphosphates onto a RNA primer:DNA template; assay type: biochemical, herpes simplex virus I; conditions: for VMax: primer:template DNAT, DNAC or DNAG; for Km: primer:template with next correct NTP: DNAT (ATP), DNAC (GTP), DNAG (CTP)
primase (UL5/UL8/UL52) [2] = target: T1, primase (UL5/UL8/UL52); assay: Incorporation of nucleotides as the second nucleotide of the primer; assay type: biochemical, herpes simplex virus I
primase (UL5/UL8/UL52) [3] = target: T1, primase (UL5/UL8/UL52); assay: Primer synthesis on d; assay type: biochemical, herpes simplex virus I; conditions: for primers elongated after incorporation of the nucleotide: 800 μM ATP; for primers elongated after incorporation of the nucleotide / incorporation by primase opposite template dG (new products of altered mobility): GTP; for chain termination after incorporation: template d(GTCT)15, ATP and GTP; for incorporation by primase opposite template dG (new products of altered mobility): template d(GTCT)15, ATP, 800 μM analogue
primase (UL5/UL8/UL52) [4] = target: T1, primase (UL5/UL8/UL52); assay: Inhibition of NTP polymerization onto primer:templates; assay type: biochemical; conditions: for type of inhibition with respect to GTP incorporation: data not shown
primase (UL5/UL8/UL52) [5] = target: T1, primase (UL5/UL8/UL52); assay: Incorporation of nucleotides as the 5′-terminal nucleotide of the primer; assay type: biochemical, herpes simplex virus I
primase (UL5/UL8/UL52) [6] = target: T1, primase (UL5/UL8/UL52); assay type: biochemical, herpes simplex virus I
[7] = IC50, inhibition of GTP polymerization, 800 μM GTP, DNAC
[8] = inhibition of ATP polymerization, ATP (100 μM), DNAT
[9] = inhibition of GTP polymerization, GTP (100 μM), DNAC
[10] = inhibition of GTP polymerization, 800 μM GTP, DNAC

T1 sequence (P10189 whole entry): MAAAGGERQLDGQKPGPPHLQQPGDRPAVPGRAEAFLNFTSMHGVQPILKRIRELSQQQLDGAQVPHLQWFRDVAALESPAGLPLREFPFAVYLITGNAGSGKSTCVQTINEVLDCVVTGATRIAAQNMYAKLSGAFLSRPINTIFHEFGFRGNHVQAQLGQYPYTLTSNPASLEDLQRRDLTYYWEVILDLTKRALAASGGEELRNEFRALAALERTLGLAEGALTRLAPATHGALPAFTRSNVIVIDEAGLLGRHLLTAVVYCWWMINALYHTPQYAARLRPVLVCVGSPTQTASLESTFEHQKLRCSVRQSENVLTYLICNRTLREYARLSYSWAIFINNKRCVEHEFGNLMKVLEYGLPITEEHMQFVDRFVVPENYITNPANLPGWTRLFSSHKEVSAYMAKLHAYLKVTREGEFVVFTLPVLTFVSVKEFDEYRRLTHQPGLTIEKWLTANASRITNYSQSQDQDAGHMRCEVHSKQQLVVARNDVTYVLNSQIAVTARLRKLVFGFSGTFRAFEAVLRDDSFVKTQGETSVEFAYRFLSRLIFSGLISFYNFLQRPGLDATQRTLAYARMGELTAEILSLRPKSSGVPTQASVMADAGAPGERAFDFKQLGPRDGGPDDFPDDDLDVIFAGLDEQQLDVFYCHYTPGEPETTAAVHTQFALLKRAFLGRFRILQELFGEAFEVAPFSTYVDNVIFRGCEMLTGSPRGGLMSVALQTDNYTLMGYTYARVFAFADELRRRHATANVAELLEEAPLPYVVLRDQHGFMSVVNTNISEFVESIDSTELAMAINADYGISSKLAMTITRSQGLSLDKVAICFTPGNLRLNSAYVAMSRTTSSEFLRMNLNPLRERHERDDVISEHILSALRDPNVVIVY
T1 sequence (P10192 whole entry, further chain): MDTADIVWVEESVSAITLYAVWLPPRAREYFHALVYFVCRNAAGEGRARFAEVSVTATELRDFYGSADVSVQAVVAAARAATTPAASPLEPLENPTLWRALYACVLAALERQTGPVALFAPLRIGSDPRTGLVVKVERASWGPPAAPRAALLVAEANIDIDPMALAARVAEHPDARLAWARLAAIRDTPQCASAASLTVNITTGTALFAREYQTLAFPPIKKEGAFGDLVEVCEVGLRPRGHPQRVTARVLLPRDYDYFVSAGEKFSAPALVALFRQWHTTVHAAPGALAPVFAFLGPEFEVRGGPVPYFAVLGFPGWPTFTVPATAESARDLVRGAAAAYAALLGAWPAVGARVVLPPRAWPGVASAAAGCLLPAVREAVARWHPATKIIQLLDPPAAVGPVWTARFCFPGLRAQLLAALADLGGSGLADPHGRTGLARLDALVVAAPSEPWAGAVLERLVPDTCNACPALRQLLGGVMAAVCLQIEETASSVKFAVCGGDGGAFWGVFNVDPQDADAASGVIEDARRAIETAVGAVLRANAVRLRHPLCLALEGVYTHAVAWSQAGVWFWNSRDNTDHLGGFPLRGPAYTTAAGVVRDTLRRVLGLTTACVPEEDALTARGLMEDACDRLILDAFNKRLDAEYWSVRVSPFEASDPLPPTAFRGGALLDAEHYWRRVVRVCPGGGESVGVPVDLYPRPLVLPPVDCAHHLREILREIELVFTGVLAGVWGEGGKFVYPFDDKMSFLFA
T1 sequence (P10236 whole entry): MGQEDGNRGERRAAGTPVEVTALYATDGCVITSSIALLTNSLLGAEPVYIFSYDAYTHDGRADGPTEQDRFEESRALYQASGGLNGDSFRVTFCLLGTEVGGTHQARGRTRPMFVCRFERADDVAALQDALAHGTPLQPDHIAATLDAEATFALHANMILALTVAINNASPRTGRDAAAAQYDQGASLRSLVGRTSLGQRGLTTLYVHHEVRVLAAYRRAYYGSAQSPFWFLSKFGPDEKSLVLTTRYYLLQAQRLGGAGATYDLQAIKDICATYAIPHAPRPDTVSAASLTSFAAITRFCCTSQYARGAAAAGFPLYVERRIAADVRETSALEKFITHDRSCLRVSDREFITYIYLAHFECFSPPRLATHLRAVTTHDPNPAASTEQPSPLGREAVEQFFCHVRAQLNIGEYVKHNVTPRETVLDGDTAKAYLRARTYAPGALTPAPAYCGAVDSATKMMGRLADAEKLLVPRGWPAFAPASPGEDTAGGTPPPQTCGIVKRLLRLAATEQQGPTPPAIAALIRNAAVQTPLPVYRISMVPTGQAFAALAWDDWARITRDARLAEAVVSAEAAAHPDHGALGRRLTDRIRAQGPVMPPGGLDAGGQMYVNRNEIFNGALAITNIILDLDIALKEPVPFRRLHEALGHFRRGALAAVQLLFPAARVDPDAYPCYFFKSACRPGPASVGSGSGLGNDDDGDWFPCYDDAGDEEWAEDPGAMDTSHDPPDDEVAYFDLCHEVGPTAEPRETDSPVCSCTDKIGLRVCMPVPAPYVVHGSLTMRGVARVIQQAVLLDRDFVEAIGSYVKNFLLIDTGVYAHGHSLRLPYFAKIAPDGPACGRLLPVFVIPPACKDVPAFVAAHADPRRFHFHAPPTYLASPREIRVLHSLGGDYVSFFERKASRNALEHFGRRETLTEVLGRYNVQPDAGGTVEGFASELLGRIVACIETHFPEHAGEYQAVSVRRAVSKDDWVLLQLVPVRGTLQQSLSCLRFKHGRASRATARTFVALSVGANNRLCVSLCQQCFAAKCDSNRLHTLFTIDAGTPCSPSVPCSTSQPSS

Nc1nc2c(ncn2[C@@H]2O[C@H](COP(=O)(O)OP(=O)(O)OP(=O)(O)O)[C@@H](O)[C@@H]2O)c(=O)[nH]1 [AraGTP, arabinofuranosylguanine triphosphate]
VMax (primase (UL5/UL8/UL52) [1]): 0.044 ± 0.006 pmol/h
Km (primase (UL5/UL8/UL52) [1]): 300 ± 140 µM
VMax (primase (UL5/UL8/UL52) [2]): 4.1 ± 0.3 pmol/min

Nc1ccn([C@@H]2O[C@H](COP(=O)(O)OP(=O)(O)OP(=O)(O)O)[C@@H](O)C2(F)F)c(=O)n1 [dFdCTP, 2′,2′-Difluoro-2′-deoxycytidine triphosphate]
primers elongated after incorporation of the nucleotide (primase (UL5/UL8/UL52) [3]; template d(GTCT)15): 11%
inhibition of primase (primase (UL5/UL8/UL52) [3]; 800 μM, template d(GTCT)15): relatively strong inhibition
chain termination after incorporation (primase (UL5/UL8/UL52) [3]): strong chain termination
incorporation by primase opposite template dG (new products of altered mobility) (primase (UL5/UL8/UL52) [3]): polymerized

Nc1ccn([C@H]2CC[C@@H](COP(=O)(O)OP(=O)(O)OP(=O)(O)O)O2)c(=O)n1 [ddCTP]
incorporation by primase opposite template dG (new products of altered mobility) (primase (UL5/UL8/UL52) [3]): does not readily incorporate
inhibition of primase (primase (UL5/UL8/UL52) [3]; template d(GTCT)15, increased ddCTP concentration, data not shown): > 90%
IC50 (primase (UL5/UL8/UL52) [4]; [7]): 800 ± 120 µM

Nc1ccn(C2SC(COP(=O)(O)OP(=O)(O)OP(=O)(O)O)C(O)C2O)c(=O)n1 (centres unmarked) [SaraCTP, 4′-thio-arabinofuranosylcytosine triphosphate]
chain termination after incorporation (primase (UL5/UL8/UL52) [3]): very strong chain termination
incorporation by primase opposite template dG (new products of altered mobility) (primase (UL5/UL8/UL52) [3]): polymerized

Nc1ncnc2c1ncn2[C@@H]1O[C@H](COP(=O)(O)OP(=O)(O)OP(=O)(O)O)C[C@H]1O [3′-dATP, cordycepin triphosphate]
IC50 (primase (UL5/UL8/UL52) [4]; inhibition of ATP polymerization, 800 μM ATP, DNAT): 1100 ± 170 µM

Nc1ncnc2c1ncn2[C@H]1CC[C@@H](COP(=O)(O)OP(=O)(O)OP(=O)(O)O)O1 [ddATP]
IC50 (primase (UL5/UL8/UL52) [4]; IC50, inhibition of ATP polymerization, 800 μM ATP, DNAT): 1700 ± 110 µM
IC50 (primase (UL5/UL8/UL52) [4]; [7]): 2400 ± 900 µM

Nc1ccn([C@@H]2O[C@H](COP(=O)(O)OP(=O)(O)OP(=O)(O)O)[C@@H](O)[C@@H]2O)c(=O)n1 [AraCTP, arabinofuranosylcytosine triphosphate]
chain termination after incorporation (primase (UL5/UL8/UL52) [3]): very strong chain termination
incorporation by primase opposite template dG (new products of altered mobility) (primase (UL5/UL8/UL52) [3]): polymerized
VMax (primase (UL5/UL8/UL52) [1]): 0.30 ± 0.05 pmol/h
Km (primase (UL5/UL8/UL52) [1]): 360 ± 190 µM

Nc1nc2c(ncn2[C@@H]2O[C@H](COP(=O)(O)OP(=O)(O)OP(=O)(O)O)[C@@H](O)[C@H]2O)c(=O)[nH]1 [GTP]
VMax (primase (UL5/UL8/UL52) [1]): 0.060 ± 0.012 pmol/h
Km (primase (UL5/UL8/UL52) [1]): 230 ± 170 µM
VMax (primase (UL5/UL8/UL52) [5]): 1.1 ± 0.27 pmol/min
VMax (primase (UL5/UL8/UL52) [2]): 9.5 ± 1.3 pmol/min

Nc1ncnc2c1ncn2[C@@H]1O[C@H](COP(=O)(O)OP(=O)(O)O)[C@@H](O)[C@H]1O [ADP]
IC50 (primase (UL5/UL8/UL52) [4]; [8]): > 10000 µM

Nc1ncnc2c1ncn2[C@@H]1O[C@H](COP(=O)(O)O)[C@@H](O)[C@H]1O [AMP]
IC50 (primase (UL5/UL8/UL52) [4]; [8]): > 10000 µM

Nc1nc2c(ncn2[C@@H]2O[C@H](COP(=O)(O)OP(=O)(O)O)[C@@H](O)[C@H]2O)c(=O)[nH]1 [GDP]
type of inhibition with respect to GTP incorporation (primase (UL5/UL8/UL52) [4]): competitive
IC50 (primase (UL5/UL8/UL52) [4]; [9]): 4400 ± 650 µM

Nc1nc2c(ncn2[C@@H]2O[C@H](COP(=O)(O)O)[C@@H](O)[C@H]2O)c(=O)[nH]1 [GMP]
IC50 (primase (UL5/UL8/UL52) [4]; [9]): 3800 ± 540 µM

Nc1ncnc2c1ncn2[C@H]1C[C@H](O)[C@@H](COP(=O)(O)OP(=O)(O)OP(=O)(O)O)O1 [2′-dATP]
VMax (primase (UL5/UL8/UL52) [1]): 0.024 ± 0.06 pmol/h
Km (primase (UL5/UL8/UL52) [1]): 770 ± 370 µM
VMax (primase (UL5/UL8/UL52) [5]): 20 ± 1.1 pmol/min
VMax (primase (UL5/UL8/UL52) [2]): >10 pmol/min

Nc1ncnc2c1ncn2[C@@H]1O[C@H](COP(=O)(O)OP(=O)(O)OP(=O)(O)O)[C@@H](O)[C@@H]1O [AraATP, arabionfuranosyladenine triphosphate]
VMax (primase (UL5/UL8/UL52) [1]): 0.026 ± 0.004 pmol/h
Km (primase (UL5/UL8/UL52) [1]): 190 ± 110 µM
VMax (primase (UL5/UL8/UL52) [5]): 0.04 ± 0.005 pmol/min
VMax (primase (UL5/UL8/UL52) [2]): 1.0 ± 0.16 pmol/min

Nc1ccn([C@H]2C[C@H](O)[C@@H](COP(=O)(O)OP(=O)(O)OP(=O)(O)O)O2)c(=O)n1 [2′-dCTP]
incorporation by primase opposite template dG (new products of altered mobility) (primase (UL5/UL8/UL52) [3]): readily incorporates
VMax (primase (UL5/UL8/UL52) [1]): 0.16 ± 0.036 pmol/h
Km (primase (UL5/UL8/UL52) [1]): 640 ± 360 µM

Nc1nc(O)c2ncn(COC(CO)COP(=O)(O)OP(=O)(O)OP(=O)(O)O)c2n1 (centres unmarked) [GCVTP, ganciclovir triphosphate]
IC50 (primase (UL5/UL8/UL52) [4]; [10]): 3400 ± 880 µM

Nc1ncnc2c1ncn2[C@@H]1O[C@H](COP(=O)(O)OP(=O)(O)OP(=O)(O)O)[C@@H](O)[C@H]1O [ATP]
VMax (primase (UL5/UL8/UL52) [1]): 0.23 ± 0.09 pmol/h
Km (primase (UL5/UL8/UL52) [1]): 1700 ± 960 µM
VMax (primase (UL5/UL8/UL52) [5]): 14 ± 1.7 pmol/min
VMax (primase (UL5/UL8/UL52) [2]): 5.1 ± 1.8 pmol/min

Nc1nc2c(ncn2[C@H]2C[C@H](O)[C@@H](COP(=O)(O)OP(=O)(O)OP(=O)(O)O)O2)c(=O)[nH]1 [2′-dGTP]
VMax (primase (UL5/UL8/UL52) [1]): 0.18 ± 0.02 pmol/h
Km (primase (UL5/UL8/UL52) [1]): 130 ± 80 µM
VMax (primase (UL5/UL8/UL52) [2]): 5.3 ± 0.8 pmol/min

Nc1ccn([C@@H]2O[C@H](COP(=O)(O)OP(=O)(O)OP(=O)(O)O)[C@@H](O)[C@H]2O)c(=O)n1 [CTP]
primers elongated after incorporation of the nucleotide (primase (UL5/UL8/UL52) [3]; template d(GTCT)15): 75%
incorporation by primase opposite template dG (new products of altered mobility) (primase (UL5/UL8/UL52) [3]): readily incorporates
VMax (primase (UL5/UL8/UL52) [1]): 1.2 ± 0.16 pmol/h
Km (primase (UL5/UL8/UL52) [1]): 1100 ± 280 µM

Nc1nc2c(ncn2COCCOP(=O)(O)OP(=O)(O)OP(=O)(O)O)c(=O)[nH]1 [ACVTP, acyclovir triphosphate]
IC50 (primase (UL5/UL8/UL52) [4]): 3200 ± 570 µM

Nc1nc2c(ncn2[C@H]2CC[C@@H](COP(=O)(O)OP(=O)(O)OP(=O)(O)O)O2)c(=O)[nH]1 [ddGTP]
inhibition of primase activity (primase (UL5/UL8/UL52) [6]; template C20GCCCTA15, increasing ddGTP up to 2 mM): up to 90%
incorporation by primase as third and later nucleotide (new products) (primase (UL5/UL8/UL52) [6]; template C20GCCCTA15 for GTP analogues, ATP, [α-32P]GTP, partly data not shown): no new products
type of inhibition with respect to GTP incorporation (primase (UL5/UL8/UL52) [4]): competitive
IC50 (primase (UL5/UL8/UL52) [4]; [10]): 1100 ± 180 µM
